In assay [1] the test system is poly-(ADP-ribose)-polymerase. In words: PARP activity during myocardium ischemia with arterial hypertension. The class given is in vivo, rats. To be noted: no unit in table (b49 gives the norm in pkMole/mg of protein). Here is the method:
(§1) The apoptosis activity was judged by poly-(ADP-ribose)-polymerase (key ferment of apoptotic cell loss), which was determined using Amersham Pharmacia Biotech test sets. The extent of necrotic cardiomyocites damage was estimated according to the quantity of myoglobin entry in the blood, in which the myoglobin content was measured spectrophotometrically.
Arterial hypertensia of normotensive rats was reproduced by imposing the ligature in the form of a titanic heliciform ring on a site of an aorta with the arteries of kidneys departing from it. The reached narrowing of an aortic lumen was 2/3 in diameter. Animals were operated on under anesthetic, in which their abdominal cavity was opened. The arterial pressure was measured by use of a gauge with a rubber cuff on the animal's tail. A signal from the gauge was recorded on a Mingograph EMT 118. On the 30th day after the operation, all of the animals were divided into two groups: in the first group the animal's left descending interventricular artery at its top third was ligated - the hard ischemia of a myocardium, and in the second group, an irreversible bilateral occlusion of the general carotids was reproduced with a silk thread (see example 9). […] Both groups of animals were euthanased on the 10th day after the operation. […]

The next assay has as its system myocardium. In words: Myocardium ischemia (coronary artery ligation) with arterial hypertension: arrhythmia, ischemia and necrosis zones, myoglobin. The class given is in vivo, rats. To be noted: for Arrhythmia duration / Ischemia zone, % of myocardium mass / Necrosis zone, % from ischemia zone / Necrosis zone, % from myocardium mass: 6 hours after bandaging. Here is the method: as §1
Arterial hypertensia of normotensive rats was reproduced by imposing the ligature in the form of a titanic heliciform ring on a site of an aorta with the arteries of kidneys departing from it. The reached narrowing of an aortic lumen was 2/3 in diameter. Animals were operated on under anesthetic, in which their abdominal cavity was opened. The arterial pressure was measured by use of a gauge with a rubber cuff on the animal's tail. A signal from the gauge was recorded on a Mingograph EMT 118. On the 30th day after the operation, all of the animals were divided into two groups: in the first group the animal's left descending interventricular artery at its top third was ligated - the hard ischemia of a myocardium, and in the second group, an irreversible bilateral occlusion of the general carotids was reproduced with a silk thread (see example 9). […] Both groups of animals were euthanased on the 10th day after the operation. All of the investigated connections were introduced intravenously (this method of introduction was chosen to reflect the maximum effect of the medication) within 15 minutes after coronary artery bandaging. The developed means was also introduced intravenously in the form of an infusion in 5% glucose, or in tablet form with an oral administration, or in a kind of suppository.

Assay [2] relates to poly-(ADP-ribose)-polymerase. In words: PARP activity in myocardium and brain at acute hypobaric hypoxia with hypercapnia. The class given is in vivo. The method, then:
as §1
(§2) Example 7. Acute hypobaric anoxia (as one of the most adequate methods of hypoxia study) in combination with hypercapnia was modeled by "lifting" low-resistant to hypoxia animals to a critical altitude of 11,500 m at a speed of 1,200 m/min. If at this altitude for more than 10 minutes, hypoxia modeling stopped, and the animals were considered conditionally "high-resistant", and animals that lived less than 10 minutes were considered conditionally "low-resistant". In the present study, only animals with low-resistance to hypoxia were used. During the second experiment of "lifting" animals in order to simulate hypobaric anoxia, in combination with hypercapnia, these parameters were recorded: loss of pose time (LPT), lifetime - time from the end of "lifting" until respiratory standstill or the first atonal inhalation occurrence, restitution time (RT) - from a respiratory standstill until active pose restoration after descending the animal. The hypoxia stability factor was calculated as a ratio of the duration to the restitution time, an increase of which means the growth of the organism's resistance to the occurrence of extreme oxygen deprivation.
(§3) The studied substances were injected intravenously (method that reflects the maximum effect of the medication) 15 minutes prior to the experiment. The designed medication was also injected intravenously in the form of an infusion or pills that were administered orally or a suppository.

The subject of assay [3] is low-resistant to hypoxia animals. In words: Acute hypobaric anoxia in combination with hypercapnia (lifting to 11,500 m): lifetime, loss of pose time, restitution time, stability factor. In kind it is in vivo. To be noted: for Stability factor: ratio of duration to restitution time. The method, then:
as §2, §3

The mark [4] stands for this setting: 100 mg/kg intravenously within 15 minutes after coronary artery bandaging.
The mark [5] stands for this setting: 50 mg/kg intravenously 15 minutes prior to the experiment.
[6] abbreviates: 100 mg/kg intravenously 15 minutes prior to the experiment.
Setting [7] is: 500 mg/kg intravenously 15 minutes prior to the experiment.
The mark [8] stands for this setting: 75 mg/kg intravenously within 15 minutes after coronary artery bandaging.
Setting [9] is: 1.0 mg/kg intravenously 15 minutes prior to the experiment.
The mark [10] stands for this setting: 10.0 mg/kg intravenously 15 minutes prior to the experiment.

Marks after values point to notes of the source that are not given here.

For `CCc1nc(C)ccc1O` [3-hydroxy-6-methyl-2-ethylpyridine], the PARP activity in assay [1] (setting [4]) is 0,256± 0,032. Besides, in the assay with myocardium (setting [4]), the Arrhythmia duration stood at 58 ± 9 min; the “Ischemia zone, % of myocardium mass” value is 39±3 % of myocardium mass; the “Necrosis zone, % from ischemia zone” value was found to be 67±3 % from ischemia zone; the “Necrosis zone, % from myocardium mass” value was 26±9 % from myocardium mass. The “Myoglobin content after 8 hours” value in the assay with myocardium (setting [4]) is 127±12 mcg/g dry solid matter.
As for `CCc1nc(C)ccc1O.O=C(O)CCC(=O)O` [3-oxy-3-methyl-6-oxypyridine succinate], in assay [2] (setting [5]), the “PARP activity, % of control brain” value is recorded as 312±29 % of control and the “PARP activity, % of control myocardium” value was 204±21 % of control. Further, in assay [2] (setting [6]), the “PARP activity, % of control brain” value is recorded as 317±21 % of control and the “PARP activity, % of control myocardium” value is given as 208±29 % of control. Moreover, in assay [2] (setting [7]), the “PARP activity, % of control brain” value was 302±32 % of control and the “PARP activity, % of control myocardium” value was 202±19 % of control. Further, in assay [3] (setting [5]), the Duration came out at 778 ± 107 s, the “Loss of Pose Time” value worked out at 136 ± 22 s, the Restitution time is 680 ± 69 s and the Stability factor worked out at 1.14±0.12. In addition, in assay [3] (setting [6]), the Duration worked out at 707 ± 145 s, the “Loss of Pose Time” value is 156 ± 29 s, the Restitution time was 642 ± 69 s and the Stability factor is reported as 1.10±0.13. Also, in assay [3] (setting [7]), the Duration was determined as 784 ± 107 s, the “Loss of Pose Time” value is 136 ± 39 s, the Restitution time was determined as 690 ± 83 s and the Stability factor worked out at 1.14±0.10.
As for `C[N+](C)(C)C[C@H](O)CC(=O)[O-]` [L-carnitine], the PARP activity in assay [1] (setting [8]) was 0,406± 0,030. Further, in the assay on myocardium (setting [8]), the Arrhythmia duration came to 68 ± 8 min; the “Ischemia zone, % of myocardium mass” value is 40±3 % of myocardium mass; the “Necrosis zone, % from ischemia zone” value is listed as 70±5 % from ischemia zone; the “Necrosis zone, % from myocardium mass” value was found to be 28±9 % from myocardium mass. In addition, in the assay with myocardium (setting [8]), the “Myoglobin content after 8 hours” value is 132±10 mcg/g dry solid matter.
Consider `O=C([O-])CCCO.[Li+]` [Lithium oxybutyrate], for which, in assay [2] (setting [6]), the “PARP activity, % of control brain” value is given as 300±82 % of control and the “PARP activity, % of control myocardium” value was 200±33 % of control. In addition, in assay [3] (setting [6]), the Duration was determined as 1345 ± 89 s, the “Loss of Pose Time” value is recorded as 436+90** sec, the Restitution time was 885 ± 82 s and the Stability factor came to 1.4±0.2.
As to `NC(=O)c1ccc[n+]([C@@H]2O[C@H](COP(=O)([O-])OP(=O)(O)OC[C@H]3O[C@@H](n4cnc5c(N)ncnc54)[C@H](O)[C@@H]3O)[C@@H](O)[C@H]2O)c1` [NAD, nicotine-amide-adenine-dinucleotide], the “PARP activity, % of control myocardium” value in assay [2] (setting [9]) is 100±29 % of control. For the same molecule, in assay [2] (setting [10]), the “PARP activity, % of control myocardium” value is 103±24 % of control. For the same molecule, in assay [3] (setting [9]), the Duration is 2034 ± 234 s, the “Loss of Pose Time” value turned out to be 936 ± 79 s, the Restitution time amounted to 1042 ± 44 s and the Stability factor is listed as 1.95±0.25. In addition, in assay [3] (setting [10]), the Duration came out at 2077 ± 109 s, the “Loss of Pose Time” value stood at 1036 ± 91 s, the Restitution time was 1000 ± 82 s and the Stability factor was 2.08±0.22.
On to `NC(=S)N=C(N)N` [hutimine], for which, in assay [2] (setting [6]), the “PARP activity, % of control brain” value was 290±83 % of control and the “PARP activity, % of control myocardium” value is 212±23 % of control. Further, in assay [3] (setting [6]), the Duration came to 986 ± 87 s, the “Loss of Pose Time” value was determined as 186 ± 32 s, the Restitution time is 685 ± 82 s and the Stability factor was determined as 1.45±0.12.
As to `OC[C@H]1O[C@@H](n2cnc3c(O)ncnc32)[C@H](O)[C@@H]1O` [inosine], in assay [2] (setting [6]), the “PARP activity, % of control brain” value is 242±24 % of control and the “PARP activity, % of control myocardium” value is listed as 192±23 % of control. In addition, in assay [3] (setting [6]), the Duration is 754 ± 30 s, the “Loss of Pose Time” value was 186 ± 39 s, the Restitution time stood at 680 ± 69 s and the Stability factor was 1.16±0.16.
On to `O=C(O)CCC(=O)O` [succinic acid], for which, in assay [2] (setting [6]), the “PARP activity, % of control brain” value is 325±20 % of control and the “PARP activity, % of control myocardium” value is on record as 225±22 % of control. Besides, in assay [3] (setting [6]), the Duration was 747 ± 90 s, the “Loss of Pose Time” value stood at 121 ± 34 s, the Restitution time was 1042 ± 69 s and the Stability factor stood at 1.0±0.2.
